What was measured:
[1] = target: SLK (Homo sapiens, UniProt Q9H2G2); experiment: biochemical
[2] = target: STK10 (Homo sapiens, UniProt O94804); experiment: biochemical
Chain of STK10 (O94804 36-294 limits assumed): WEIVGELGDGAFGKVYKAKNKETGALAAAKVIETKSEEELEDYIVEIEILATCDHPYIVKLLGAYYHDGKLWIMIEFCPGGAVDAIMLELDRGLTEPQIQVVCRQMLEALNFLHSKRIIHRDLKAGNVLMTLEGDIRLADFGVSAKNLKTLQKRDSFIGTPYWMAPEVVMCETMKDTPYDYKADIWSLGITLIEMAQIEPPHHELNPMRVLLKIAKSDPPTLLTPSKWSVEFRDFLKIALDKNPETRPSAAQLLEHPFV

Chain of SLK (Q9H2G2 34-292): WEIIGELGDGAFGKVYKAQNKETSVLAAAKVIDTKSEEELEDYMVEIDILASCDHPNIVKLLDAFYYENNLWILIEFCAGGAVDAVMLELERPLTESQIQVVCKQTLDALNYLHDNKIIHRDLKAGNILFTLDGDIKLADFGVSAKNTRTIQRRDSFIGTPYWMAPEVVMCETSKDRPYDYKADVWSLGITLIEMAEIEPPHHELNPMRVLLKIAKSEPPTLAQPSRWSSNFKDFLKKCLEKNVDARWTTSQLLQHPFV

Ki [1]: 18 nM | Ki [2]: 27 nM
Compound: C#Cc1cccc(Nc2c(C#N)cnc3cc(OC)c(OC)cc23)c1 [compound 82]

Reference: publication doi:10.1101/757047v1 (biorxiv, 2019)
